# Reference: patent publication US11766423B2 (THE JOHNS HOPKINS UNIVERSITY, priority 2018, dated 2023)
# “And” between values parts separate entries of the source, which are not always exact repeats. Equal entries are not always repeated. “Also recorded” adds a separate entry of the source.
# Experiments:
# nSMase2 = conditions: literature value; read-out: nSMase2 IC50 of prototype inhibitor; cited from earlier work
# [1] = cited from earlier work
# GFAP-GFP mice [2] = conditions: co-injection with IL-1β, Dickens et al. 2017; cited from earlier work
# [3] = Metabolic stability in mouse liver microsomes; format: in vitro ADME
# Description: (§1) One potential liability when using chemical probes in vivo is lack of metabolic stability which structurally inactivates the compound before it can reach its molecular target. […] Percent of drug remaining over time was determined by liquid chromatography-tandem mass spectrometry analysis (LC/MS/MS).
# (§2) Metabolic stability assay was conducted in mouse or human liver microsomes as has been described previously (Rais, et al., 2016) with minor modifications. Briefly, the reaction was carried out using potassium phosphate buffer (100 mM, pH 7.4), in the presence of an NADPH regenerating system (compound final concentration was 1 μM; 0.2 mg/mL microsomes). Compound disappearance was monitored over time using a liquid chromatography and tandem mass spectrometry (LC/MS/MS) method. Chromatographic analysis was performed using an Accela ultra high-performance system consisting of an analytical pump and an autosampler coupled with a TSQ Vantage mass spectrometer (Thermo Fisher Scientific Inc., Waltham, Mass.). […] The mobile phase consisted of 0.1% formic acid in acetonitrile and 0.1% formic acid in water with gradient elution.
# [4] = in 19 of 759 bioassays; cited from earlier work
# Rat primary astrocytes = assay: GFAP immunofluorescence, activation of serum-deprived astrocytes; format: cell-based; conditions: 10 μM, 2 h; for GFAP levels without serum starvation: complete medium; for astrocyte activation (GFAP) in response to serum starvation: serum deprivation
# Description: Media was collected after 2 h incubation and centrifuged at 2700 g for 15 minutes at 4° C. Supernatant was collected and the number of extracellular vesicles (EVs) was quantified using ZetaView Nanoparticle Tracker. The mean concentration of EVs/mL (±SEM) was calculated from 4 replicate experiments. […] GFP-containing exosomes released from astrocytes in the brain were quantified in plasma of mice 2.5 h following compound administration. Data are mean±SD, n=5-10 mice per condition. *, p<0.05 compared to saline control; ###, p<0.001 compared to IL1-β group; ***, p<0.001 compared to saline group. […] Astrocytes grown in complete medium were used as no treatment control. Cells were fixed and stained with anti-GFAP antibody (1:500, Sigma). Fluorescence intensity was measured using Image J. (FIG. 5D) Quantitation of fluorescence in (FIG. 5C). Bar graph represents background corrected mean fluorescence intensity measured from 100 astrocytes per condition. Error bars represent standard error of mean. One-way ANOVA followed by Tukey's posthoc test was performed;
# Cells were fixed and immunofluorescence labeling for GFAP was performed.
# primary astrocytes = assay: Inhibition of exosome (EV) release from primary astrocytes; format: cell-based, mouse; conditions: 2 h; for effect on exosome (EV) release in vitro, in words: primary astrocytes, FBS withdrawal, 0.03-30 μM
# acid sphingomyelinase = biological target: T1, acid sphingomyelinase (Homo sapiens, UniProt P17405); assay: Acid sphingomyelinase selectivity study, standard protocol; format: biochemical; conditions: results not shown
# T1 sequence (P17405 47-631): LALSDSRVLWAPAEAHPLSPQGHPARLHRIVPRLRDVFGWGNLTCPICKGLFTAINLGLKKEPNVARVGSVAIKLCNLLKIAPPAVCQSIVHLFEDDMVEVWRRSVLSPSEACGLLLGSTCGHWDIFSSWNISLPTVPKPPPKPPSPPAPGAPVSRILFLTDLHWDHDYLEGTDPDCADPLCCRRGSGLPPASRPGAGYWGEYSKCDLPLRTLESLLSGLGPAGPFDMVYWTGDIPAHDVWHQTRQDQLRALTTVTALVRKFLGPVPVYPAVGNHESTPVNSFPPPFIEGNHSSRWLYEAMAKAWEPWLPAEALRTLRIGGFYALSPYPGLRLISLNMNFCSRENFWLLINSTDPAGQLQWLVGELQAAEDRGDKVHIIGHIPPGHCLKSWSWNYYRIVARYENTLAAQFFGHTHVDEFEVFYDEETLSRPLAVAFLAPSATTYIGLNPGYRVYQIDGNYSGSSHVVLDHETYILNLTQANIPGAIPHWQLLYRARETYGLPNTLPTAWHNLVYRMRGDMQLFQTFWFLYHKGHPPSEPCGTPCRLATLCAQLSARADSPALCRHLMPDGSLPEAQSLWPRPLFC
# human nSMase2 = biological target: T2, human nSMase2 (Homo sapiens, UniProt Q9NY59); assay: Fluorescence-based (Amplex Red) human nSMase2 activity assay; conditions: rate vs SM concentration at several DPTIP concentrations
# T2 sequence (Q9NY59 1-655): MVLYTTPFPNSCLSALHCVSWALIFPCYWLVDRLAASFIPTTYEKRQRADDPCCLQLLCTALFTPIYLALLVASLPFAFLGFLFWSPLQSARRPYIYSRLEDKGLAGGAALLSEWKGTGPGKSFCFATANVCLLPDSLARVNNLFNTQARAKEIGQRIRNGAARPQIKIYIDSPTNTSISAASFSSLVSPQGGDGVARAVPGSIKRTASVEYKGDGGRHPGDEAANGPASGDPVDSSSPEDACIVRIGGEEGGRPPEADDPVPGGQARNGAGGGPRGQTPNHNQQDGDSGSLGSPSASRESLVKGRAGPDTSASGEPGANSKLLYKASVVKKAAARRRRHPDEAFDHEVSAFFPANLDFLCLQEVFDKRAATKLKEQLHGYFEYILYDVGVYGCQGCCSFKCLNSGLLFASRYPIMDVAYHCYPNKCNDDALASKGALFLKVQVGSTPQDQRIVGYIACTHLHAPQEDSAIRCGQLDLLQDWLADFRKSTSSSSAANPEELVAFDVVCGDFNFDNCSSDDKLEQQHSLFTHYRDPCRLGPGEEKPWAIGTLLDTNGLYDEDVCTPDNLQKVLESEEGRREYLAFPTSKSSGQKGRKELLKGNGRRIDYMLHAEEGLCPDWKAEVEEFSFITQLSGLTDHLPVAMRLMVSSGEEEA
# Description: In this reaction, one of the products, phosphorylcholine, is stoichiometrically converted through a series of enzyme-coupled reactions to fluorescent resorufin, so that fluorescence signal is directly proportional to nSMase2 activity (FIG. 1A). The components of the coupling system were always added along with SM (see Methods, section 1.3.10 herein below). […] Final DMSO concentration was 0.57%.
# The assay was carried out in black solid bottom, medium binding, 1536-well plates (Greiner, 789176-F). […] Recombinant human nSMase2 preparations (2 μL) at various concentrations (0.03 to 0.5 μg protein/μL solution) were incubated with substrate/detection reaction mixture (2 μL) containing various concentrations of SM (5 to 40 μM), coupling enzymes (alkaline phosphatase 4 U/mL, choline oxidase 0.1 U/mL and horseradish peroxidase 0.1 U/mL) and Amplex Red® (50 μM). Hydrolysis of SM was carried out for different incubation times (15-160 min) at 37° C. in pH 7.4 Tris-HCl buffer 100 mM, containing 10 mM MgCl2 and 0.2% Triton X-100. […] Resorufin was monitored with a Viewlux μHTS Microplate Imager (Perkin Elmer) at energy levels of 1,000 or 3,000 and exposure times of 1 sec or 2 sec.
# alkaline phosphatase = assay: Counter assay without nSMase2, phosphorylcholine as substrate; format: biochemical; conditions: phosphorylcholine 2 μM, no nSMase2, no SM; read-out: IC50 alkaline phosphatase in counter screen
# Description: Following assay validation, 365,000 compounds were screened from the Molecular Libraries Small Molecule Repository (MLSMR) and 2816 compounds were screened from the NCGC pharmaceutical collection (NPC) library for human nSMase2 inhibitors. Compounds were screened at 4 concentrations: 1.1 μM, 11 μM, 57 μM and 114 μM. Cambinol (full does response in each plate) was used as positive control. After eliminating promiscuous compounds, 1990 compounds that had maximal inhibitory responses >50% at the highest concentration tested and robust curve response classes (CRC) (Inglese, et al., 2006) were selected for re-testing in the same human nSMase2 activity assay and counter screen. […] There were a total of 220 compounds for follow-up confirmation (FIG. 2A).
# GFAP-GFP mice [5] = assay: Mouse model of brain inflammation, striatal IL-1β injection in GFAP-GFP mice
# Description: There were two groups of mice: the first group was sacrificed 2 h after IL-1β administration by heart puncture, and GFP-labeled circulating EVs were measured with liver cytokines.
# Striatal injections and EV measurements were performed as previously described by our group in adult (2-3 month) male GFAP-GFP mice (Jackson Laboratories) (McCluskey, et al., 2008; Dickens, et al., 2017). Mice were anesthetized with 3% Isoflourane (Baxter) in oxygen (Airgas), and placed in a stereotaxic frame (Stoelting Co.). A small burr hole was drilled in the skull over the left striatum using a dental drill (Fine Scientific Tools). IL-1β (0.1 ng/3 μL) was injected (total volume of 3 μL) at the rate 0.5 μL/min via a pulled glass capillary tip diameter <50 μm (McCluskey, et al., 2008); using the stereotaxic coordinates: A/P+0.5; M/L−2; −3 D/V. Saline was used as a control. […] Following infusion, the capillary was held in place for 5 min to allow for solution to diffuse into the tissue. Animals were sacrificed at 2 h by an overdose of anesthetic, and transcardially perfused with ice-cold saline containing heparin (20 μL per 100 ml, Sigma). Blood was collected via cardiac puncture using a heparin (Sigma Aldrich) coated syringe and EDTA tubes (BD) 2 h following striatal injections. Blood was immediately centrifuged at 2,700×g for 15 min (20° C.) to obtain plasma. Plasma was further centrifuged at 10,000 g for 15 min (4° C.) to generate platelet free plasma.
# Quantitation of Plasma EVs: Dynabeads M-450 Epoxy (Invitrogen) were coupled with anti-GFP antibody (Thermo Fisher) at a ratio of 200 μg antibody per 4×10^8 beads. […] The beads were washed and placed on a magnet to separate EVs bound to anti-GFP antibody-coupled Dynabeads. The precipitated EVs were eluted using 0.1 M glycine (pH 3.0). The concentration of immunoprecipitated GFP+EVs was quantified using ZetaView nanoparticle tracking analysis (Particle Metrix) as described above.
# Cytokine measurements: RNA was isolated from fresh frozen tissues (10 to 50 mg) using the RNeasy Mini Kit (Qiagen). […] (Westberry, et al., 2010) For quantitative real-time PCR (qRT-PCR), each reaction contained SYBR Green Master Mix (12.5 mL; Life Technologies), diethyl pyrocarbonate H2O (10.5 mL), forward and reverse primers to CCL2, TNFα, IL-6, IL-1b, IL-17a, IL-10, IGFR1, and CXCL1 (0.5 mL each; Sigma-Aldrich), and cDNA (1 mL).
# [6] = Metabolic stability in human liver microsomes; format: in vitro ADME
# Description: as §1, §2
# [7] = 10 mg/kg IP 0.5 h before IL-1β, 2 h post IL-1β
# [8] = 10 mg/kg IP, liver qRT-PCR 2 h post IL-1β
compound,measurement,setting,value
O=c1[nH]c(=S)[nH]c(-c2ccccc2)c1Cc1c(O)ccc2ccccc12 [Cambinol],IC50,nSMase2,[…]
same,"in vivo pharmacokinetic profile, in words",[1],poor in vivo pharmacokinetic profile
COc1cc(O)c(C(=O)O)c(-c2cc(O)c(O)cc2C)c1 [altenusin],neutrophil infiltration into brain parenchyma,GFAP-GFP mice [2],suppresses neutrophil infiltration
"COc1cc(-c2nc(-c3cccs3)c(-c3ccccc3)[nH]2)cc(OC)c1O [DPTIP, 2,6-dimethoxy-4-(5-phenyl-4-thiophen-2-yl-1H-imidazol-2-yl)-phenol]","metabolic stability, in words",[3]; mouse liver microsomes with NADPH,metabolically stable
same,percent remaining,"[3]; mouse liver microsomes, NADPH, 1 h, 1 μM compound",100%
same,weak activity observed in NCATS bioassays,[4],2 to 50 µM
same,GFAP levels without serum starvation,Rat primary astrocytes,did not change GFAP levels
same,astrocyte activation (GFAP) in response to serum starvation,Rat primary astrocytes,prevented astrocyte activation
same,EC50,"primary astrocytes; Mus musculus, Astrocyte, primary astrocytes activated by FBS withdrawal, 2 h treatment",~3 µM
same,"effect on exosome (EV) release in vitro, in words",primary astrocytes,inhibited exosome release from astrocytes in a dose dependent manner; also recorded: inhibitor of EV release; also recorded: inhibits exosome release
same,IC50,acid sphingomyelinase,> 100 µM
same,mode of inhibition with respect to sphingomyelin,human nSMase2,noncompetitive inhibition; also recorded: non-competitive
same,IC50,alkaline phosphatase,> 100 µM
same,"effect on IL-1β-induced EV release in vivo, in words",GFAP-GFP mice [5]; [7],inhibitor of EV release; also recorded: inhibits exosome release
same,reduction of IL-1β-induced astrocyte-derived (GFP+) EVs in plasma,GFAP-GFP mice [5]; [7],51±13% and 70%
same,effect on IL-1β-induced upregulation of liver cytokines,GFAP-GFP mice [5]; [8],inhibited
same,"metabolic stability, in words",[6]; human liver microsomes with NADPH,metabolically stable
same,percent remaining,"[6]; human liver microsomes, NADPH, 1 h, 1 μM compound",100%
"COc1cc(OC)cc(-c2nc(-c3cccs3)c(-c3ccccc3)[nH]2)c1 [DPT, 2-(3,5-dimethoxyphenyl)-5-phenyl-4-(thiophen-2-yl)-1H-imidazole]",GFAP levels without serum starvation,Rat primary astrocytes,did not change GFAP levels
same,astrocyte activation (GFAP) in response to serum starvation,Rat primary astrocytes,failed to prevent astrocyte activation
same,"effect on exosome (EV) release in vitro, in words",primary astrocytes; listed as des hydroxyl inactive analog of DPTIP,did not inhibit
same,"effect on exosome (EV) release in vitro, in words",primary astrocytes; listed as des-hydroxyl analog,no effect
same,"effect on exosome (EV) release in vitro, in words",primary astrocytes; listed as inactive analog,no effect
same,"effect on IL-1β-induced EV release in vivo, in words",GFAP-GFP mice [5]; [7],no significant difference
same,"effect on IL-1β-induced EV release in vivo, in words","GFAP-GFP mice [5]; 10 mg/kg IP 0.5 h before IL-1β, 2 h post IL-1β, listed as des-hydroxyl analog",no difference
same,"effect on IL-1β-induced EV release in vivo, in words","GFAP-GFP mice [5]; 10 mg/kg IP 0.5 h before IL-1β, 2 h post IL-1β, listed as inactive analog",no statistically significant effect
same,effect on IL-1β-induced upregulation of liver cytokines,GFAP-GFP mice [5]; [8],no effect
same,effects on production of TNF-α and IL-6,GFAP-GFP mice [5]; [8],marginal and not statistically significant
same,reduction in CCL2 production,GFAP-GFP mice [5]; [8],not statistically significant
